Literature values as cited in patent publication US20150064117A1, “NOVEL POLYMORPHS OF REBAUDIOSIDE C AND METHODS FOR MAKING AND USING THE SAME” (Redpoint Bio Corporation, priority 2009, published 2015).
Read-outs that look alike come from different tables or passages of the source.

Key:
[1] = relative to sucrose

Compound	times sweeter than sucrose [1] [times]	effect in mixture (presence and degree of synergism) (mixture with fructose, intensity equivalent to 3% (w/v-%) sucrose)	effect in mixture (presence and degree of synergism) (mixture with fructose, intensity equivalent to 5% (w/v-%) sucrose)	effect in mixture (presence and degree of synergism) (mixture with fructose, intensity equivalent to 7% (w/v-%) sucrose)	effect in mixture (presence and degree of synergism) (mixture with glucose, intensity equivalent to 3% (w/v-%) sucrose)	effect in mixture (presence and degree of synergism) (mixture with glucose, intensity equivalent to 5% (w/v-%) sucrose)	effect in mixture (presence and degree of synergism) (mixture with glucose, intensity equivalent to 7% (w/v-%) sucrose)	effect in mixture (presence and degree of synergism) (mixture with sucrose, intensity equivalent to 3% (w/v-%) sucrose)	effect in mixture (presence and degree of synergism) (mixture with sucrose, intensity equivalent to 5% (w/v-%) sucrose)	effect in mixture (presence and degree of synergism) (mixture with sucrose, intensity equivalent to 7% (w/v-%) sucrose)
C=C1C[C@@]23CC[C@H]4[C@@](C)(CCC[C@@]4(C)C(=O)O[C@@H]4O[C@H](CO)[C@@H](O)[C@H](O)[C@H]4O)[C@@H]2CC[C@]1(O[C@@H]1O[C@H](CO)[C@@H](O)[C@H](O)[C@H]1O[C@@H]1O[C@@H](C)[C@H](O)[C@@H](O)[C@H]1O)C3 [dulcoside A]	30	–	–	–	–	–	–	–	–	–
C=C1C[C@@]23CC[C@H]4[C@@](C)(CCC[C@@]4(C)C(=O)O[C@@H]4O[C@H](CO)[C@@H](O)[C@H](O)[C@H]4O)[C@@H]2CC[C@]1(O[C@@H]1O[C@H](CO)[C@@H](O)[C@H](O[C@@H]2O[C@H](CO)[C@@H](O)[C@H](O)[C@H]2O)[C@H]1O[C@@H]1O[C@H](CO)[C@@H](O)[C@H](O)[C@H]1O)C3 [rebaudioside A]	–	additive	additive	suppressive	additive	additive	suppressive	synergistic	additive	additive
Rebaudioside C	≥ 40	–	–	–	–	–	–	–	–	–
